Results from US12559492B2, “BRAF degraders” (C4 Therapeutics, Inc., priority 2020, dated 2026).

Target: BRAF^V600E protein (Homo sapiens, UniProt P15056, V600E)
Assay: HiBiT cellular BRAF V600E degradation assay
Type: cell-based
Conditions: 24 h incubation; for DC50: A375.10 cells (HiBiT tag knocked in at N-terminal of BRAF V600E), concentration at which 50% of total cellular BRAF V600E is degraded; for Emax: A375.10 cells, Emax = amount of residual protein remaining in the cell after compound treatment, read-out: HiBit 24 h Emax

BRAF^V600E protein, sequence (P15056 whole entry V600E): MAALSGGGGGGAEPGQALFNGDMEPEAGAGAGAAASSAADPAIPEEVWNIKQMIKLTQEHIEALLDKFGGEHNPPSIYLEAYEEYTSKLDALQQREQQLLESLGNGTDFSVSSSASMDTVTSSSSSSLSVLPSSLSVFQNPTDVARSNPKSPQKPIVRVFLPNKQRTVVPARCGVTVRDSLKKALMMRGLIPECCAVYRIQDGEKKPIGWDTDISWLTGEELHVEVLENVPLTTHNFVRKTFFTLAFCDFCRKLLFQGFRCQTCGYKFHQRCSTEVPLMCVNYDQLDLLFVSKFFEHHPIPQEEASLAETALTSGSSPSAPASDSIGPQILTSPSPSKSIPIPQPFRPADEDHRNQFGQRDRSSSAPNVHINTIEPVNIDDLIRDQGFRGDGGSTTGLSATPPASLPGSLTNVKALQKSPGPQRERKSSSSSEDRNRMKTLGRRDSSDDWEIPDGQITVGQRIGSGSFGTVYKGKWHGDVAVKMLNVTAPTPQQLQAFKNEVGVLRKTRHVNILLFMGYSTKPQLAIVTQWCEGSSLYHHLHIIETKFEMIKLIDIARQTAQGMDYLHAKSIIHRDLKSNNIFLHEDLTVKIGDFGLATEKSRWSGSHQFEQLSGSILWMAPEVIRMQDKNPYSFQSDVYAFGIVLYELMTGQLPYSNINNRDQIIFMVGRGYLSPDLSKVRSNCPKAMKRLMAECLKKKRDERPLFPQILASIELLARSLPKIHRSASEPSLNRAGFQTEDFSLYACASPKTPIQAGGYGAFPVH

Row | DC50 | Emax | SMILES
1 | 23.8 nM | 8.31% | CCN(C)S(=O)(=O)Nc1ccc(F)c(C(=O)c2c[nH]c3ncc(-c4cc(F)c(N5CCN(C(=O)CN6CCC(c7ccc(NC8CCC(=O)NC8=O)cc7)CC6)CC5)c(F)c4)cc23)c1F (stereo not drawn) [Example 93, 5-[4-[4-[2-[4-[4-[(2,6-dioxo-3-piperidyl)amino]phenyl]-1-piperidyl]acetyl]piperazin-1-yl]-3,5-difluoro-phenyl]-3-[3-[[ethyl(methyl)sulfamoyl]amino]-2,6-difluoro-benzoyl]-1H-pyrrolo[2,3-b]pyridine]
2 | 21.2 nM | 12.8% | CCN(C)S(=O)(=O)Nc1ccc(F)c(C(=O)c2c[nH]c3ncc(-c4ccc(CN5CCN(CC(=O)N6CCC(c7ccc(NC8CCC(=O)NC8=O)cc7)CC6)CC5)cc4)cc23)c1F (stereo not drawn) [Example 94, 5-[4-[[4-[2-[4-[4-[(2,6-dioxo-3-piperidyl)amino]phenyl]-1-piperidyl]-2-oxo-ethyl]piperazin-1-yl]methyl]phenyl]-3-[3-[[ethyl(methyl)sulfamoyl]amino]-2,6-difluoro-benzoyl]-1H-pyrrolo[2,3-b]pyridine]
3 | 30.4 nM | 12.8% | CCN(C)S(=O)(=O)Nc1ccc(F)c(C(=O)c2c[nH]c3ncc(-c4ccc(CN5CCN(C(=O)CN6CCN(c7ccc(NC8CCC(=O)NC8=O)cc7)CC6)CC5)cc4)cc23)c1F (stereo not drawn) [Example 95, 5-[4-[[4-[2-[4-[4-[(2,6-dioxo-3-piperidyl)amino]phenyl]piperazin-1-yl]acetyl]piperazin-1-yl]methyl]phenyl]-3-[3-[[ethyl(methyl)sulfamoyl]amino]-2,6-difluoro-benzoyl]-1H-pyrrolo[2,3-b]pyridine]
4 | 9.43 nM | 8.26% | CCN(C)S(=O)(=O)Nc1cccc(C(=O)c2c[nH]c3ncc(-c4cnc(N5CCN(C(=O)CN6CCC(c7ccc(NC8CCC(=O)NC8=O)cc7)CC6)CC5)nc4)cc23)c1F (stereo not drawn) [Example 96, 5-[2-[4-[2-[4-[4-[(2,6-dioxo-3-piperidyl)amino]phenyl]-1-piperidyl]acetyl]piperazin-1-yl]pyrimidin-5-yl]-3-[3-[[ethyl(methyl)sulfamoyl]amino]-2-fluoro-benzoyl]-1H-pyrrolo[2,3-b]pyridine]
5 | 6.62 nM | 7.94% | CCN(C)S(=O)(=O)Nc1cccc(C(=O)c2c[nH]c3ncc(-c4cnc(N5CCN(C(=O)CN6CCC(c7ccc(NC8CCC(=O)NC8=O)cc7F)CC6)CC5)nc4)cc23)c1F (stereo not drawn) [Example 97, 5-[2-[4-[2-[4-[4-[(2,6-dioxo-3-piperidyl)amino]-2-fluoro-phenyl]-1-piperidyl]acetyl]piperazin-1-yl]pyrimidin-5-yl]-3-[3-[[ethyl(methyl)sulfamoyl]amino]-2-fluoro-benzoyl]-1H-pyrrolo[2,3-b]pyridine]
6 | 4.67 nM | 7.42% | CCN(C)S(=O)(=O)Nc1cccc(C(=O)c2c[nH]c3ncc(-c4cnc(N5CCN(C(=O)CC6CCN(c7ccc(NC8CCC(=O)NC8=O)cc7F)CC6)CC5)nc4)cc23)c1F (stereo not drawn) [Example 98, 5-[2-[4-[2-[1-[4-[(2,6-dioxo-3-piperidyl)amino]-2-fluoro-phenyl]-4-piperidyl]acetyl]piperazin-1-yl]pyrimidin-5-yl]-3-[3-[[ethyl(methyl)sulfamoyl]amino]-2-fluoro-benzoyl]-1H-pyrrolo[2,3-b]pyridine]
7 | 9.55 nM | 13.2% | CCN(C)S(=O)(=O)Nc1cccc(C(=O)c2c[nH]c3ncc(-c4cnc(N5CCN(C(=O)CC6(O)CCN(c7ccc(NC8CCC(=O)NC8=O)cc7)CC6)CC5)nc4)cc23)c1F (stereo not drawn) [Example 99, 5-[2-[4-[2-[1-[4-[(2,6-dioxo-3-piperidyl)amino]phenyl]-4-hydroxy-4-piperidyl]acetyl]piperazin-1-yl]pyrimidin-5-yl]-3-[3-[[ethyl(methyl)sulfamoyl]amino]-2-fluoro-benzoyl]-1H-pyrrolo[2,3-b]pyridine]
8 | 9.52 nM | 6.76% | CCN(C)S(=O)(=O)Nc1cccc(C(=O)c2c[nH]c3ncc(-c4cnc(N5CCN(C(=O)CN6CCC(c7ccc(NC8CCC(=O)NC8=O)cc7)C(F)(F)C6)CC5)nc4)cc23)c1F (stereo not drawn) [Example 100, 5-[2-[4-[2-[4-[4-[(2,6-dioxo-3-piperidyl)amino]phenyl]-3,3-difluoro-1-piperidyl]acetyl]piperazin-1-yl]pyrimidin-5-yl]-3-[3-[[ethyl(methyl)sulfamoyl]amino]-2-fluoro-benzoyl]-1H-pyrrolo[2,3-b]pyridine]
9 | 3.38 nM | 10.2% | CCN(C)S(=O)(=O)Nc1cccc(C(=O)c2c[nH]c3ncc(-c4cnc(N5CCN(C(=O)CC6(O)CCN(c7ccc(NC8CCC(=O)NC8=O)cc7F)CC6)CC5)nc4)cc23)c1F (stereo not drawn) [Example 101, 5-[2-[4-[2-[1-[4-[(2,6-dioxo-3-piperidyl)amino]-2-fluoro-phenyl]-4-hydroxy-4-piperidyl]acetyl]piperazin-1-yl]pyrimidin-5-yl]-3-[3-[[ethyl(methyl)sulfamoyl]amino]-2-fluoro-benzoyl]-1H-pyrrolo[2,3-b]pyridine]
10 | 6.88 nM | 8.28% | CCN(C)S(=O)(=O)Nc1cccc(C(=O)c2c[nH]c3ncc(-c4cnc(N5CCN(C(=O)CC6(O)CCN(c7ccc(NC8CCC(=O)NC8=O)cc7F)C6)CC5)nc4)cc23)c1F (stereo not drawn) [Example 102, 5-[2-[4-[2-[1-[4-[(2,6-dioxo-3-piperidyl)amino]-2-fluoro-phenyl]-3-hydroxy-pyrrolidin-3-yl]acetyl]piperazin-1-yl]pyrimidin-5-yl]-3-[3-[[ethyl(methyl)sulfamoyl]amino]-2-fluoro-benzoyl]-1H-pyrrolo[2,3-b]pyridine]
11 | 3.04 nM | 8.98% | CCN(C)S(=O)(=O)Nc1cccc(C(=O)c2c[nH]c3ncc(-c4cnc(N5CCN(C(=O)CC6(O)CCN(c7ccc(NC8CCC(=O)NC8=O)cc7Cl)CC6)CC5)nc4)cc23)c1F (stereo not drawn) [Example 103, 5-[2-[4-[2-[1-[2-chloro-4-[(2,6-dioxo-3-piperidyl)amino]phenyl]-4-hydroxy-4-piperidyl]acetyl]piperazin-1-yl]pyrimidin-5-yl]-3-[3-[[ethyl(methyl)sulfamoyl]amino]-2-fluoro-benzoyl]-1H-pyrrolo[2,3-b]pyridine]
12 | 3.37 nM | 10.8% | CCN(C)S(=O)(=O)Nc1cccc(C(=O)c2c[nH]c3ncc(-c4cnc(N5CCN(C(=O)CC6(O)CCN(c7ncc(NC8CCC(=O)NC8=O)cc7F)CC6)CC5)nc4)cc23)c1F (stereo not drawn) [Example 104, 5-[2-[4-[2-[1-[5-[(2,6-dioxo-3-piperidyl)amino]-3-fluoro-2-pyridyl]-4-hydroxy-4-piperidyl]acetyl]piperazin-1-yl]pyrimidin-5-yl]-3-[3-[[ethyl(methyl)sulfamoyl]amino]-2-fluoro-benzoyl]-1H-pyrrolo[2,3-b]pyridine]
13 | 42.2 nM | 36.9% | CCN(C)S(=O)(=O)Nc1cccc(C(=O)c2c[nH]c3ncc(-c4cnc(N5CCN(C(=O)CC6(O)CCN(c7ccc(NC8CCC(=O)NC8=O)cn7)CC6)CC5)nc4)cc23)c1F (stereo not drawn) [Example 105, 5-[2-[4-[2-[1-[5-[(2,6-dioxo-3-piperidyl)amino]-2-pyridyl]-4-hydroxy-4-piperidyl]acetyl]piperazin-1-yl]pyrimidin-5-yl]-3-[3-[[ethyl(methyl)sulfamoyl]amino]-2-fluoro-benzoyl]-1H-pyrrolo[2,3-b]pyridine]
14 | 34.8 nM | 11.5% | CCN(C)S(=O)(=O)Nc1cccc(C(=O)c2c[nH]c3ncc(-c4cnc(N5CCN(C(=O)CC6CCN(c7ccc(NC8CCC(=O)NC8=O)cc7C(F)(F)F)CC6)CC5)nc4)cc23)c1F (stereo not drawn) [Example 106, 5-[2-[4-[2-[1-[4-[(2,6-dioxo-3-piperidyl)amino]-2-(trifluoromethyl)phenyl]-4-piperidyl]acetyl]piperazin-1-yl]pyrimidin-5-yl]-3-[3-[[ethyl(methyl)sulfamoyl]amino]-2-fluoro-benzoyl]-1H-pyrrolo[2,3-b]pyridine]
15 | 3.08 nM | 7.97% | CCN(C)S(=O)(=O)Nc1cccc(C(=O)c2c[nH]c3ncc(-c4ccc(N5CCN(C(=O)CN6CCC(c7ccc(NC8CCC(=O)NC8=O)cc7)CC6)CC5)nc4)cc23)c1F (stereo not drawn) [Example 107, 5-[6-[4-[2-[4-[4-[(2,6-dioxo-3-piperidyl)amino]phenyl]-1-piperidyl]acetyl]piperazin-1-yl]-3-pyridyl]-3-[3-[[ethyl(methyl)sulfamoyl]amino]-2-fluoro-benzoyl]-1H-pyrrolo[2,3-b]pyridine]
16 | 5.6 nM | 11.4% | CCN(C)S(=O)(=O)Nc1cccc(C(=O)c2c[nH]c3ncc(-c4ccc(N5CCN(C(=O)CN6CCC(c7ccc(OC8CCC(=O)NC8=O)cc7)CC6)CC5)nc4)cc23)c1F (stereo not drawn) [Example 108, 5-[6-[4-[2-[4-[4-[(2,6-dioxo-3-piperidyl)oxy]phenyl]-1-piperidyl]acetyl]piperazin-1-yl]-3-pyridyl]-3-[3-[[ethyl(methyl)sulfamoyl]amino]-2-fluoro-benzoyl]-1H-pyrrolo[2,3-b]pyridine]
17 | 5.49 nM | 10.8% | CCN(C)S(=O)(=O)Nc1cccc(C(=O)c2c[nH]c3ncc(-c4ccc(N5CCN(C(=O)CC6(O)CCN(c7ccc(NC8CCC(=O)NC8=O)cc7)CC6)CC5)nc4)cc23)c1F (stereo not drawn) [Example 109, 5-[6-[4-[2-[1-[4-[(2,6-dioxo-3-piperidyl)amino]phenyl]-4-hydroxy-4-piperidyl]acetyl]piperazin-1-yl]-3-pyridyl]-3-[3-[[ethyl(methyl)sulfamoyl]amino]-2-fluoro-benzoyl]-1H-pyrrolo[2,3-b]pyridine]
18 | 4.47 nM | 7.75% | CCN(C)S(=O)(=O)Nc1cccc(C(=O)c2c[nH]c3ncc(-c4ccc(N5CCN(C(=O)CN6CCC(c7ccc(NC8CCC(=O)NC8=O)cc7)C(F)(F)C6)CC5)nc4)cc23)c1F (stereo not drawn) [Example 110, 5-[6-[4-[2-[4-[4-[(2,6-dioxo-3-piperidyl)amino]phenyl]-3,3-difluoro-1-piperidyl]acetyl]piperazin-1-yl]-3-pyridyl]-3-[3-[[ethyl(methyl)sulfamoyl]amino]-2-fluoro-benzoyl]-1H-pyrrolo[2,3-b]pyridine]
